Test systems include DLD-1 colon; SR leukemia; SK-OV-3 ovarian; IGROV1 ovarian; HCT-15 colon; SW-620 colon; HOP-92 NSCLC; LXFL 529 NSCLC; M19-MEL melanoma; XF 498 CNS; DU-145 prostate; MCF7 breast.
What all share (test): growth of human tumour cells (NCI), 48 h

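Values below derive from 48-hour exposures of cells grown in 96-well plates, with endpoints linearly interpolated between the two concentrations bracketing the appropriate inhibition level. GI50: concentration for 50% inhibition of growth. TGI marks complete inhibition of growth.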

For `O=C(O)C(Cc1ccccc1)N1C(=O)N/C(=C\c2ccc(F)cc2)C1=O` (stereo not given), the TGI with DLD-1 colon, in the assay on SR leukemia, in the assay with SK-OV-3 ovarian, with IGROV1 ovarian, in the assay on HCT-15 colon and in the assay with SW-620 colon was more than 100 µM throughout. The TGI in the assay on HOP-92 NSCLC, in the assay on LXFL 529 NSCLC and in the assay on M19-MEL melanoma was more than 100 µM each time.

Regarding `CC(=O)OC(C)C(=O)C1c2cccc(O)c2C(=O)c2c(O)cc(C)cc21` (stereo not given), the TGI was 3.22 µM in the assay with DLD-1 colon; 1.81 µM in the assay with SK-OV-3 ovarian; 0.465 µM in the assay on XF 498 CNS; 1.66 µM with IGROV1 ovarian; 1.55 µM in the assay on HCT-15 colon; 1.71 µM in the assay on SW-620 colon. Further, the figures for the TGI in the assay on HOP-92 NSCLC and in the assay with M19-MEL melanoma were 1.02 µM and 1.23 µM, respectively.

With `COc1ccc(NC(=O)c2cc(OC)cc(OC)c2)cc1`, the TGI was more than 100 µM in the assay on DLD-1 colon; more than 100 µM with SR leukemia; more than 84.8 µM with SK-OV-3 ovarian; more than 100 µM with XF 498 CNS; more than 100 µM with IGROV1 ovarian; more than 100 µM in the assay with HCT-15 colon. Further, the TGI in the assay with SW-620 colon, in the assay with HOP-92 NSCLC and in the assay with LXFL 529 NSCLC was more than 100 µM in each case.

Regarding `N#CC(C#N)=c1ccc(=C2NCC3CCCN23)cc1` (stereo not given), the TGI with SR leukemia, in the assay with SK-OV-3 ovarian, in the assay with IGROV1 ovarian, in the assay with HCT-15 colon, in the assay with SW-620 colon and with HOP-92 NSCLC was more than 100 µM in each case. Besides, the TGI with LXFL 529 NSCLC and with M19-MEL melanoma was more than 100 µM in each case.

In the case of `COc1ccc2c(c1)C1(C=N2)CCN(C(C)=O)CC1`, the TGI with DLD-1 colon, in the assay with SK-OV-3 ovarian, with IGROV1 ovarian, in the assay with HCT-15 colon, with SW-620 colon and in the assay with HOP-92 NSCLC was more than 100 µM in each case. The TGI with LXFL 529 NSCLC and with M19-MEL melanoma was more than 100 µM each time.

Regarding `O=C(Nc1ccc(F)cc1F)c1cc(I)ccc1O`, the GI50 in the assay with SR leukemia was 3.05 µM; in the assay with SK-OV-3 ovarian it was 1.12 µM; in the assay with DU-145 prostate, 3.87 µM; in the assay on IGROV1 ovarian, 2.4 µM; in the assay on HCT-15 colon it was 3.27 µM; with SW-620 colon, 3.39 µM. Also, the GI50 with HOP-92 NSCLC was 1.2 µM; with MCF7 breast it was 2.77 µM. Also, the TGI is more than 100 µM in the assay with SR leukemia; 4.27 µM in the assay on SK-OV-3 ovarian; more than 100 µM in the assay with DU-145 prostate; more than 100 µM in the assay on IGROV1 ovarian; 45.5 µM with HCT-15 colon; 90.7 µM in the assay with SW-620 colon. Besides, the TGI is 4.65 µM in the assay on HOP-92 NSCLC and more than 100 µM in the assay with MCF7 breast.

As to `COc1ccc2c(c1)C(=O)/C(=C/c1ccc(OCC(=O)Nc3nccs3)cc1)O2`, the GI50 is 0.27 µM with SR leukemia; 17.4 µM in the assay on SK-OV-3 ovarian; 0.504 µM with DU-145 prostate; 0.0169 µM in the assay on IGROV1 ovarian; 4.51 µM in the assay on HCT-15 colon; 2.88 µM with SW-620 colon. Further, the GI50 is 0.161 µM in the assay on HOP-92 NSCLC and 5.75 µM in the assay on MCF7 breast. The TGI in the assay with SR leukemia is 1.15 µM; with SK-OV-3 ovarian it was more than 95.4 µM; in the assay with DU-145 prostate it was 5.73 µM; with IGROV1 ovarian it was 0.036 µM; in the assay on HCT-15 colon, 17.8 µM; in the assay with SW-620 colon it was 10.2 µM. The figures for the TGI in the assay on HOP-92 NSCLC and in the assay with MCF7 breast were 0.369 µM and 18 µM, respectively.

In the case of `CCNC1C2(CCCCC2)NC(=O)C12CCCCC2` (stereo not given), the TGI in the assay on DLD-1 colon, in the assay with SK-OV-3 ovarian, with XF 498 CNS, in the assay with IGROV1 ovarian, with HCT-15 colon and in the assay on SW-620 colon was more than 100 µM in each case. For the same compound, the TGI in the assay on LXFL 529 NSCLC and in the assay with M19-MEL melanoma was more than 100 µM each time.

Take `CCOC(=O)C1=C(C)CC2C(=O)OC(=O)C2C1(C)C` (stereo not given): the TGI with DLD-1 colon, in the assay on SR leukemia, with SK-OV-3 ovarian, with IGROV1 ovarian, in the assay with HCT-15 colon and in the assay with SW-620 colon was more than 100 µM in each case. Moreover, the TGI in the assay with HOP-92 NSCLC, in the assay on LXFL 529 NSCLC and with M19-MEL melanoma was more than 100 µM each time.

On to `COc1cc(/C=C/c2cc(/C=C/c3ccc(O)c(OC)c3)n(C(=O)Nc3ccc(F)cc3)n2)ccc1O`, for which the GI50 is 0.278 µM in the assay on SR leukemia; 1.04 µM with SK-OV-3 ovarian; 1.53 µM in the assay with DU-145 prostate; 2.38 µM with IGROV1 ovarian; 0.566 µM with HCT-15 colon; 0.504 µM with SW-620 colon. Also, the figures for the GI50 in the assay with HOP-92 NSCLC and in the assay with MCF7 breast were 2.12 µM and 0.402 µM, respectively. In addition, the TGI is 4.33 µM in the assay with SK-OV-3 ovarian; 11.4 µM in the assay with DU-145 prostate; 34.3 µM with IGROV1 ovarian; 21.8 µM with HCT-15 colon; 10.6 µM in the assay on SW-620 colon; 8.07 µM with HOP-92 NSCLC. In addition, the TGI with MCF7 breast came out at 7.66 µM.

As to `Cc1cc(=O)[nH]c2cc3oc4ccccc4c3cc12`, the TGI with SR leukemia is more than 44.3 µM; in the assay on SK-OV-3 ovarian, more than 100 µM; in the assay with DU-145 prostate, more than 100 µM; in the assay on IGROV1 ovarian it was more than 100 µM; with HCT-15 colon, more than 100 µM; in the assay on SW-620 colon it was more than 100 µM. Further, the TGI in the assay with HOP-92 NSCLC and with MCF7 breast was more than 100 µM throughout.

Consider `CC(C)c1ccc(C(C)C(=O)N(CC2=C(C(C)c3ccccn3)c3ccccc3C2)C(C)C)cc1` (stereo not given), for which the GI50 in the assay on SR leukemia was 2.67 µM; in the assay on SK-OV-3 ovarian, 6.63 µM; in the assay on DU-145 prostate, 5.29 µM; with IGROV1 ovarian, 2.77 µM; with HCT-15 colon it was 2.84 µM; in the assay on SW-620 colon, 3.18 µM. The results for the GI50 in the assay on HOP-92 NSCLC and with MCF7 breast were 1.98 µM and 3.23 µM, respectively. Further, the TGI in the assay on SR leukemia was 9.58 µM; in the assay with SK-OV-3 ovarian, more than 100 µM; in the assay with DU-145 prostate, 18 µM; in the assay on IGROV1 ovarian, 31.3 µM; with HCT-15 colon, 18 µM; in the assay with SW-620 colon, 15.8 µM. Besides, the TGI in the assay with HOP-92 NSCLC amounted to 12.8 µM; with MCF7 breast it was 11.4 µM.
